How the values were obtained:
[1] = target: T1, peripheral benzodiazepine binding site (Rattus norvegicus, UniProt P16257); experiment: In vitro binding, [3H]-PK11195, kidney membrane preparation; conditions: PBR IC50 (nM), [3H]-PK11195 (2 nM), 4° C., 1 h
T1 construct: diluted kidney membrane preparation (200 μg); from tissue; host or cells: kidney membrane preparation
Method: Non-specific binding was determined with PK11195 (10 μM).
(§1) Non-specific binding was determined with Flumazenil (20 μM). In both cases, incubations were terminated by rapid filtration through Whatman GF/B glass fibre. Filters were immediately washed 3 times with 5 mL ice-cold 50 mM Tris/HCl at pH 7.4. Filters were counted in a β-scintillation counter (Packard) to measure the amount of bound radioactivity. The IC50 of the compounds for the peripheral benzodiazepine binding site and the central benzodiazepine receptor were calculated using Kell 6 software.

[2] = target: central benzodiazepine receptors; experiment: In vitro binding, [3H]-Flumazenil, brain cortex membrane preparation; conditions: for IC50: [3H]-Flumazenil (2 nM), 25° C., 45 min, read-out: CBR IC50
Method: as §1

CNC(=O)Cc1c(-c2ccc(OCCF)cc2)nc2ccc(Cl)cn12 [PBR106, 2-(2-(4-(2-fluoroethoxy)phenyl)-6-chloroimidazo[1,2-a]pyridin-3-yl)-N-methylacetamide]
IC50 [1]: 170 nM | IC50 [2]: 548 nM | chromatographic logP (LogP HPLC): 2.05 ± 0.07

CCN(C)C(=O)Cc1c(-c2ccc(OCCF)cc2)nc2ccc(Cl)cn12 [PBR107, 2-(2-(4-(2-fluoroethoxy)phenyl)-6-chloroimidazo[1,2-a]pyridin-3-yl)-N-ethyl-N-methylacetamide]
IC50 [1]: 54.8 nM | IC50 [2]: 1390 nM | chromatographic logP (LogP HPLC): 2.34 ± 0.07

CC(C)NC(=O)Cc1c(-c2ccc(OCCF)cc2)nc2ccc(Cl)cn12 [PBR110, 2-(2-(4-(2-fluoroethoxy)phenyl)-6-chloroimidazo[1,2-a]pyridin-3-yl)-N-isopropylacetamide]
IC50 [1]: 14.1 nM | IC50 [2]: 2740 nM | chromatographic logP (LogP HPLC): 2.74 ± 0.09

CCN(CC)C(=O)Cc1c(-c2ccc(OCCCCF)cc2)nc2ccc(Cl)cn12 [PBR 120, 2-(2-(4-(4-fluorobutoxy)phenyl)-6-chloroimidazo[1,2-a]pyridin-3-yl)-N,N-diethylacetamide]
IC50 [1]: 35 nM | IC50 [2]: 942 nM | chromatographic logP (LogP HPLC): 3.53 ± 0.11

CCN(CC)C(=O)Cc1c(-c2ccc(OCCCF)cc2)nc2c(Cl)cc(Cl)cn12 [PBR 130, 2-(2-(4-(3-fluoropropoxy)phenyl)-6,8-dichloroimidazo[1,2-a]pyridin-3-yl)-N,N-diethylacetamide]
IC50 [1]: 20 nM | CBR, % @ 10^−5M ([2]; @ 10^−5M, [3H]-Flumazenil): 50% @ 10^−5M | IC50 [2]: > 5000 nM | chromatographic logP (LogP HPLC): 3.43 ± 0.1

CCN(CC)C(=O)Cc1c(-c2ccc(C(C)(C)C)cc2)nc2ccc(F)nn12 [PBR 132, 2-(2-(4-tert-butylphenyl)-6-fluoroimidazo[1,2-b]pyridazin-3-yl)-N,N-diethylacetamide]
IC50 [1]: 38 nM | IC50 [2]: 343 nM | chromatographic logP (LogP HPLC): 3.6 ± 0.11

CCN(CC)C(=O)Cc1c(-c2ccc(OCCF)cc2)nc2c(Cl)cc(Cl)cn12 [PBR 136, 2-(2-(4-(2-fluoroethoxy)phenyl)-6,8-dichloroimidazo[1,2-a]pyridin-3-yl)-N,N-diethylacetamide]
IC50 [1]: 17.6 nM | IC50 [2]: 588 nM | chromatographic logP (LogP HPLC): 2.99 ± 0.09
